Entries after “also recorded” stand apart in the source; their conditions may differ.
Key:
SNATs [1] = experiment: Competitive cellular uptake in the presence of unselective SNAT ligand MeAIB in MCF-7 cells; assay type: cell-based, human; conditions: 100 μM compound, 100 μM MeAIB, pH 7.4 or 8.5, 30 min
Procedure: The competitive uptake in the presence of unselective SNAT ligand, MeAIB (100 μM),[31],[32] was carried out as described above with HBSS buffer at pH 7.4 or pH 8.5 containing 100 μM of the studied compound. The cells were preincubated with the inhibitors for 10 min, and the incubation mixture was removed before adding the studied compound and the inhibitor to the cells. The competitive uptake (30 min) with the inhibitor was then carried out as the normal uptake described above. The concentrations of studied compounds were analyzed by the LC–MS/MS method and calculated from the spiked standard curve and normalized with the protein concentrations.

LAT1 [2] = conditions: cited from earlier work; for LAT1 Properties (in words): merged cell over IC50, CLint and Kp columns; for IC50: ability to compete with natural LAT1-substrate L-Leu, read-out: IC50 (μM) of [^14C]-L-Leu Uptake
MCF-7 cells = experiment: Concentration-dependent cellular uptake into MCF-7 cells at various pH, with and without Na+; assay type: cell-based, human; conditions: for cellular uptake at pH 5.5 compared to pH 7.4 / cellular uptake at pH 8.5 compared to pH 7.4 / cellular uptake at pH 8.5 in the absence of Na+: 1–200 μM, 30 min; for cellular uptake at pH 8.5 in the absence of Na+: compared to presence of Na+; for Km: pH 8.5, read-out: Km(uM)@pH8.5
Procedure: MCF-7 human breast adenocarcinoma cells (HTB-22) were purchased from the American Type Culture Collection (ATCC, Manassas, VA, USA). MCF-7 cells were cultured in Dulbecco’s modified Eagle’s medium supplemented with L-glutamine (2.0 mM), heat-inactivated fetal bovine serum (10%), and penicillin (50 U/mL)–streptomycin (50 μg/mL) solution. MCF-7 cells (passages 8–25) were seeded at the density of 1 × 10^5 cells/well onto 24-well plates. The cells were used for the uptake experiments 1 day after seeding. All the studies were carried out as three biological replicates from the same cell passage.
For the following experiments, the MCF-7 cells were cultured, seeded, washed with HBSS, and preincubated as described above at the desired conditions (pH 5.5, 7.4, or 8.5, with and without Na^+). […] Subsequently, the cells were washed three times with ice-cold HBSS and lysed with 500 μL of 0.1 M NaOH (60 min). […] The cell-associated concentrations of each compound normalized to protein concentration were calculated from the standard curve that was prepared by spiking known concentrations of compounds to ACN including the selected internal standard (diclofenac to all studied compounds). The protein concentrations on each plate were determined as a mean of three samples by Bio-Rad Protein Assay based on the Bradford dye-binding method using BSA as a standard protein and measuring the absorbance (595 nm) by a multiplate reader (EnVision, PerkinElmer, Inc., Waltham, MA, USA).

LAT1 [3] = tested on: LAT1; design: unit not given here; conditions: CLint = Vmax/Km; cited from earlier work
[4] = brain accumulation; cited from earlier work
SNATs [5] = experiment: Functionality of SNATs in MCF-7 cells with [3H]-L-proline uptake; assay type: cell-based, human; conditions: for inhibition of the uptake of [^3H]-L-proline: MeAIB 100 μM
Procedure: After removal of the culture medium, MCF-7 cells were carefully washed with prewarmed HBSS (Hank’s balanced salt solution) containing 125.0 mM NaCl (or choline chloride in Na^+-free conditions), 4.8 mM KCl, 1.2 mM MgSO4, 1.2 mM KH2PO4, 1.3 mM CaCl2, 5.6 mM glucose, and 25.0 mM 4-(2-hydroxyethyl)piperazine-1-ethanesulfonic acid (HEPES) with pH adjusted to either 7.4 or 8.5 with 1 M NaOH (or KOH in sodium-free conditions). In the experiments at lower pH (4.5–6.5), 25.0 mM HEPES was replaced by 2-(N-morpholino)ethanesulfonic acid (MES), and pH was adjusted to 4.5, 5.5, and 6.5 by 1.0 M NaOH. Preincubation was done with 500 μL of prewarmed HBSS at 37 °C for 10 min before adding substrates (250 μL in HBSS) for the uptake experiments. The functionality of SNATs in MCF-7 cells was studied with a known SNAT substrate; the cells were incubated either with [^3H]-L-proline [1 μM (PerkinElmer, Waltham, MA, USA) in uptake buffer HBSS, 250 μL] at 37 °C for 1–60 min or with the uptake buffer (250 μL) consisting of 1–600 μM L-proline (containing 2 μCi [^3H]-L-proline) at 37 °C for 60 min.[38] After incubation, the uptake was stopped by adding 500 μL of ice-cold HBSS, and the cells were washed two times with ice-cold HBSS (2 × 500 μL). The cells were then lysed with 500 μL of 0.1 M NaOH (60 min), and the lysate was mixed with 3.5 mL of Emulsifier safe cocktail (Ultima Gold, PerkinElmer, Waltham, MA, USA). The radioactivity in the cells was measured by liquid scintillation counting (MicroBeta^2 counter, PerkinElmer Waltham, MA, USA). The concentrations of [^3H]-L-proline were calculated from the spiked standard curve at each pH and normalized with the protein concentrations. The SNAT-mediated uptake was confirmed by changing the pH of the uptake buffer in the absence of sodium ions and in the presence of unselective SNAT-ligand, MeAIB (100 μM).[31],[32]

SMILES | cellular uptake in the presence of MeAIB (SNATs [1]) | cellular uptake at pH 5.5 compared to pH 7.4 (MCF-7 cells) | cellular uptake at pH 8.5 compared to pH 7.4 (MCF-7 cells) | IC50 (LAT1 [2]) [µM] | Intrinsic Clearance (CLint) of LAT1-mediated uptake (LAT1 [3]) | in vivo Kp values (AUCbrain/ AUCplasma) [4] | cellular uptake at pH 8.5 in the absence of Na+ (MCF-7 cells) | Km (MCF-7 cells) [µM] | further results
CCCN(CCC)S(=O)(=O)c1ccc(C(=O)O)cc1 [PRB, probenecid, reference compound] | did not affect | increased | decreased | – | – | – | – | – | LAT1 Properties (in words) (LAT1 [2]): Not an LAT1 substrate
CC(C(=O)Nc1ccc(C[C@H](N)C(=O)O)cc1)c1cccc(C(=O)c2ccccc2)c1 (some centres unmarked) [Compound 3] | decreased | higher | higher | 51.16 ± 0.1 | 8.3 | 0.050 | increased | 131 | –
CC(C(=O)NCCCC[C@H](N)C(=O)O)c1cccc(C(=O)c2ccccc2)c1 (some centres unmarked) [Compound 5] | decreased | – | much higher | 82.7 ± 1.45 | 1.3 | 0.022 | sodium-sensitive | 102 | –
CNC(C)(C)C(=O)O [MeAIB, α-(methylamino)isobutyric acid] | – | – | – | – | – | – | – | – | LAT1 Properties (in words) (LAT1 [2]): Not an LAT1 substrate; inhibition of the uptake of [^3H]-L-proline (SNATs [5]; [^3H]-L-proline 25 μM): negligible; inhibition of the uptake of [^3H]-L-proline (SNATs [5]; [^3H]-L-proline 50 and 100 μM): able to inhibit
N[C@@H](Cc1cccc(C(=O)OCc2ccc(-c3ccc(-c4ccc5c(c4)COC5=O)s3)cc2)c1)C(=O)O [Compound 1] | decreased | – | much higher | 1.54 ± 0.05 | 47.1 | 0.043 | decreased; also recorded: sodium-sensitive | 412 | Vmax of cellular uptake (MCF-7 cells; pH 5.5): 29 nmol/min/mg protein; cellular uptake, times higher at pH 5.5 compared to pH 7.4 (MCF-7 cells; ratio of Vmax): 3.9 times; cellular uptake, times higher at pH 8.5 compared to pH 7.4 (MCF-7 cells; ratio of Vmax): 9.3 times
N[C@@H](Cc1cc(I)c(Oc2cc(I)c(O)c(I)c2)c(I)c1)C(=O)O [T4, thyroxin, reference compound] | decreased | increased | decreased | 18 ± 1.41 | 5.5 | – | – | – | –
COc1cc(/C=C/C(=O)NCc2cccc(C[C@H](N)C(=O)O)c2)ccc1O [Compound 8] | decreased | – | much higher | 14.2 ± 0.91 | 0.3 | 0.052 | sodium-sensitive | 225 | –
CC(C(=O)Nc1cccc(C[C@H](N)C(=O)O)c1)c1cccc(C(=O)c2ccccc2)c1 (some centres unmarked) [Compound 2] | did not affect | did not affect | did not affect | 0.54 ± 0.05 | 11.2 | 0.045 | did not affect | 291 | –
CC(C(=O)NCc1cccc(C[C@H](N)C(=O)O)c1)c1cccc(C(=O)c2ccccc2)c1 (some centres unmarked) [Compound 4] | decreased | – | much higher | 0.12 ± 0.01 | 4.5 | 0.017 | sodium-sensitive | 40 | –
CC(C(=O)NCC[C@H](N)C(=O)O)c1cccc(C(=O)c2ccccc2)c1 (some centres unmarked) [Compound 6] | decreased | – | decreased | 89.1 ± 4.19 | – | 0.317 | – | 422 | –
O=C(O)[C@@H]1CCCN1 [[^3H]-L-proline] | – | – | – | – | – | – | – | – | Km (SNATs [5]; MCF-7 cells, 10–600 μM, 60 min): 1470 ± 257 µM; Vmax of [^3H]-L-proline uptake (SNATs [5]; MCF-7 cells, 10–600 μM, 60 min): 1.13 ± 0.15 nmol/min/mg protein; pH dependency of uptake (SNATs [5]; MCF-7 cells, pH 4.5–8.5 in the presence of Na+): significant pH dependency; uptake in the absence of sodium (SNATs [5]; MCF-7 cells, pH 7.4): significantly reduced
N[C@@H](Cc1c[nH]c2ccccc12)C(=O)O [L-Trp, reference compound] | did not affect | did not affect | did not affect | 50.5 ± 2.63 | 146 | – | did not affect | – | –
COc1cc(/C=C/C(=O)Nc2cccc(C[C@H](N)C(=O)O)c2)ccc1O [Compound 7] | decreased | – | much higher | 1.1 ± 0.08 | – | 0.082 | sodium-sensitive | 184 | –
